Activity calls are given as the source filed them. No cut-off for these calls is given here.
What was measured:
[1] = molecular target: T1, Nuclear factor erythroid 2-related factor 2 (Homo sapiens) (UniProt Q16236); assay: Activation of Nrf2 in human MDA-MB-231 cells assessed as upregulation of Nrf2 protein expression after 16 hrs by immunoblot analysis; assay type: cell-based
T1 sequence (whole entry): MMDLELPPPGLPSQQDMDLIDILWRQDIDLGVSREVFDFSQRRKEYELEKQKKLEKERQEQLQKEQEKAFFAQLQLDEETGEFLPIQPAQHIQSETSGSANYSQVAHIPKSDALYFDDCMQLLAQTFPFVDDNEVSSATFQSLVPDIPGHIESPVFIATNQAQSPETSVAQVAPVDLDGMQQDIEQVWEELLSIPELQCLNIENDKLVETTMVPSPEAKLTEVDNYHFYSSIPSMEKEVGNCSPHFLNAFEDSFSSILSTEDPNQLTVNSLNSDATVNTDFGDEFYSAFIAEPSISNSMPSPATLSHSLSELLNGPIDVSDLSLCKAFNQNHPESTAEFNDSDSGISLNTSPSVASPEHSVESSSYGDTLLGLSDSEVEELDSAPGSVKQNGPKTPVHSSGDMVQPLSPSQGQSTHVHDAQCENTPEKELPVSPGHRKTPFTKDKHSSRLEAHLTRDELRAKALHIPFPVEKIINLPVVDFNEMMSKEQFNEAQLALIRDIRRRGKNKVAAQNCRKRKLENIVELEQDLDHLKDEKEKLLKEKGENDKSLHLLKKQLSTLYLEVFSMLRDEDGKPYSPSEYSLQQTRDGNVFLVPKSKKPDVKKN

[2] = molecular target: T2, Nuclear factor erythroid 2-related factor 2 (Mus musculus) (UniProt Q60795); assay: Activation of Nrf2 in mouse Heap1c1c7 cells assessed as induction of NAD(P)H:quinone reductase activity at 6.25 uM pretreated for 1 hr followed by co-treatment with PKC inhibitor Ro-31-8220 for 24 hrs; assay type: cell-based
T2 sequence (whole entry): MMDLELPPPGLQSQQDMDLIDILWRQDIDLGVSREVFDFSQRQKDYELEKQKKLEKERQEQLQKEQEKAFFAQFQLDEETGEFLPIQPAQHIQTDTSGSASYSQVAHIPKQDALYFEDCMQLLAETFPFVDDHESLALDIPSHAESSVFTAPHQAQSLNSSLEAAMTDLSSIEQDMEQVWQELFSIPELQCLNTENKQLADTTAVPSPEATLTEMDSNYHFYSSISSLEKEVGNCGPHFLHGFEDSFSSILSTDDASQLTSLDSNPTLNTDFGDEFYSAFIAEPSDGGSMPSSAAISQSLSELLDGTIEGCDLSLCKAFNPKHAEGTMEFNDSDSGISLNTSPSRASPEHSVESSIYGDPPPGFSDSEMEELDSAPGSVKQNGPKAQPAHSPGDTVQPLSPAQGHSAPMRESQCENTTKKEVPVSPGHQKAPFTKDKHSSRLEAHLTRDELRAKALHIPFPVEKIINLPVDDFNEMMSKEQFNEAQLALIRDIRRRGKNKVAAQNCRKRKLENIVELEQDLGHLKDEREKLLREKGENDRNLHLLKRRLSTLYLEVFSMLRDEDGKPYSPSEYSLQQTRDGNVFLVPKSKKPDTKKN

[3] = molecular target: T1, Nuclear factor erythroid 2-related factor 2 (Homo sapiens); assay: Activation of Nrf2 in human BEAS2B cells assessed as upregulation of NQO1 protein expression at 0.31 to 20 uM after 18 hrs by immunoblot analysis; assay type: cell-based
[4] = molecular target: T1, Nuclear factor erythroid 2-related factor 2 (Homo sapiens); assay: Activation of Nrf2 in human BEAS2B cells assessed as upregulation of NQO1 protein expression at 6.25 uM pretreated for 1 hr followed by co-treatment with PERK inhibitor GSK2606414 for 18 hrs by immunoblot analysis; assay type: cell-based
BEAS-2B [5] = assay: Downregulation of Keap1 protein levels in human BEAS2B cells at 50 to 100 uM after 18 hrs by immunoblot analysis; assay type: functional, cell-based
[6] = molecular target: T1, Nuclear factor erythroid 2-related factor 2 (Homo sapiens); assay: Activation of Nrf2 in human BEAS2B cells assessed as upregulation of gamma-GCS protein expression at 6.25 uM after 48 hrs by immunoblot analysis; assay type: cell-based
[7] = molecular target: T2, Nuclear factor erythroid 2-related factor 2 (Mus musculus); assay: Activation of Nrf2 in mouse Heap1c1c7 cells assessed as induction of NAD(P)H:quinone reductase activity at 25 uM relative to control; assay type: cell-based
BEAS-2B [8] = assay: Cytoprotective activity in human BEAS2B cells transfected with Nrf2-SiRNA assessed as decrease in As(+3)-induced cell death at 6.25 uM preincubated for 8 hrs followed by As(+3) challenge and measured after 24 hrs by MTT assay; assay type: functional, cell-based
[9] = molecular target: T1, Nuclear factor erythroid 2-related factor 2 (Homo sapiens); assay: Activation of Nrf2 in human BEAS2B cells assessed as upregulation of Nrf2 protein expression at 50 to 100 uM after 18 hrs by immunoblot analysis; assay type: cell-based
[10] = molecular target: T1, Nuclear factor erythroid 2-related factor 2 (Homo sapiens); assay: Activation of Nrf2 in human BEAS2B cells assessed as upregulation of Nrf2 protein expression at 6.25 uM pretreated for 1 hr followed by co-treatment with PKC inhibitor Ro-31-8220 for 18 hrs by immunoblot analysis; assay type: cell-based
[11] = molecular target: T1, Nuclear factor erythroid 2-related factor 2 (Homo sapiens); assay: Activation of Nrf2 in human MDA-MB-231 cells assessed as upregulation of NQO1 protein expression after 16 hrs by immunoblot analysis; assay type: cell-based
[12] = molecular target: T2, Nuclear factor erythroid 2-related factor 2 (Mus musculus); assay: Activation of Nrf2 in mouse Heap1c1c7 cells assessed as induction of NAD(P)H:quinone reductase activity at 6.25 uM pretreated for 1 hr followed by co-treatment with PI3K inhibitor wortmannin for 24 hrs; assay type: cell-based
[13] = molecular target: T1, Nuclear factor erythroid 2-related factor 2 (Homo sapiens); assay: Activation of Nrf2 in human BEAS2B cells assessed as upregulation of gamma-GCS protein expression at 50 to 100 uM after 18 hrs by immunoblot analysis; assay type: cell-based
[14] = molecular target: T1, Nuclear factor erythroid 2-related factor 2 (Homo sapiens); assay: Activation of Nrf2 in human BEAS2B cells assessed as upregulation of NQO1 protein expression at 50 to 100 uM after 18 hrs by immunoblot analysis; assay type: cell-based
[15] = molecular target: T1, Nuclear factor erythroid 2-related factor 2 (Homo sapiens); assay: Induction of Nrf2 translocation from cytoplasm to nucleus in human BEAS2B cells at 6.25 uM after 18 hrs by DAPI staining-based immunofluorescence analysis; assay type: cell-based
[16] = molecular target: T1, Nuclear factor erythroid 2-related factor 2 (Homo sapiens); assay: Stabilization of Nrf2 in human BEAS2B cells assessed as protein half life at 6.25 uM preincubated for 8 hrs followed by CHX addition and measured over 10 to 40 mins by immunoblot analysis (reference value: 14.7 min); assay type: cell-based
[17] = molecular target: T1, Nuclear factor erythroid 2-related factor 2 (Homo sapiens); assay: Activation of Nrf2 in human BEAS2B cells assessed as upregulation of Nrf2 protein expression at 6.25 uM pretreated for 1 hr followed by co-treatment with PERK inhibitor GSK2606414 for 18 hrs by immunoblot analysis; assay type: cell-based

COc1ccc(-c2coc3cc(OC)cc(O)c3c2=O)cc1 [4',7-DIMETHOXY-5-HYDROXYGENISTEIN]
Activity [1]: Dose-dependent effect | Activity [2]: inactive | Activity [3]: Dose-dependent effect | Activity [4]: inactive | Activity (BEAS-2B [5]): Active | Activity [6]: inactive | fold change (FC) [7]: 2.08 | Activity (BEAS-2B [8]): inactive | Activity [9]: inactive | Activity [10]: inactive | Activity [11]: Dose-dependent effect | Activity [12]: Active | Activity [13]: inactive | Activity [14]: inactive | Activity [15]: Active | T1/2 [16]: 27.6 min | Activity [17]: inactive

Source: ChEMBL document CHEMBL4229568, “Discovery of natural flavonoids as activators of Nrf2-mediated defense system: Structure-activity relationship and inhibition of intracellular oxidative insults” (Bioorg Med Chem, 2018)
